Experimental findings from patent US9611246B2, “Compositions, apparatus, systems, and methods for resolving electronic excited states” (HALLSTAR INNOVATIONS CORP., priority 2012, dated 2017) are described below.

Data set [1] in a line: Singlet oxygen generation by stabilizers upon direct UV photolysis at 355 nm. The data set is classed as physicochemical. To be noted: air saturated CCl4, benzophenone as reference. As for the experimental part: To investigate to what extent the stabilizers can generate singlet oxygen upon direct UV photolysis, singlet oxygen phosphorescence measurements were performed under photolysis at 355 nm. For these experiments CCl4 was selected as solvent, because of the long lifetime of singlet oxygen in this solvent, which makes these experiments easier to perform. Weak singlet oxygen signals were observed upon photolysis at 355 nm (FIG. 12). Using benzophenone as reference (quantum yield of singlet oxygen generation: 0.35) the low quantum yields of singlet oxygen generation were estimated: compound of Formula I(a)(1): 0.015 and alkoxy crylene: ˜0.001.
To ensure that the observed weak singlet oxygen signals truly originated from the two compounds and not from possible impurities in the sample or solvent, singlet oxygen phosphorescence excitation spectra were recorded.

Data set [2] in a line: Singlet oxygen phosphorescence from photoexcited protoporphyrin IX in air saturated DMSO-d6. The data set is classed as physicochemical. The text has this: Singlet oxygen was generated by pulsed laser excitation in the UV (355 nm) by protoporphyrin IX. Protoporphyrin IX was selected on the basis of its high extinction coefficient (FIG. 2). The solvent DMSO-d6 was selected because of good solubility of the sensitizer and stabilizers. The deuterated form of DMSO was used because of the longer singlet oxygen lifetime in deuterated solvents compared to solvents containing hydrogen. FIG. 10 and FIG. 11 show kinetic traces of singlet oxygen phosphorescence generated from photoexcitation of protoporphyrin IX. […] Excited state quenching of the protoporphyrin IX by the two compounds is unlikely to occur at these low stabilizer concentrations (μM).
In the previous experiments, singlet oxygen was generated by pulsed laser excitation in the UV spectral region (355 nm) of protoporphyrory IX. […] This was explained by a simple optical screening mechanism, where the compound of Formula I(a)(1) and alkoxy crylene absorb the UV light.
In this example, laser excitation was performed with visible light at 532 nm, where the compound of Formula I(a)(1) and the alkoxy crylene compound are transparent. […] The absence of singlet oxygen suppression with 532 nm excitation supports the optical screening mechanism with 355 nm excitation. […]

The nature of data set [3]: UV and visible light absorption spectra of stabilizers. In kind it is physicochemical. To be noted: acetonitrile. The procedure: UV and visible light absorption spectra were recorded to investigate to what extent each stabilizer itself absorbs UV light. […] Protoporphyrin IX has weak absorption bands above 450 nm, where the two compounds are transparent (FIG. 2). The compound with the oxygen bridge (Formula II(d)(1)) caused a bathocromic shift of the UV absorption of the lowest energy band. The compound with the sulfur bridge (Formula II(e)(1)) shifted the lowest energy band further into the visible region.

The subject of data set [4] is visible light-induced free radicals in pig skin. In words: Visible light-induced free radicals in ALA-treated pig skin by Electron Spin Resonance. To be noted: for Free Radicals (%): relative to 0 mM; for Free Radicals (a.u.): topical, ALA-treated pig skin. As for the experimental part: A conjugated fused tricycle compound according to Formula II(a)(1) reduced visible light-induced free radicals in skin by up to 89% and did so in a dose-dependent manner (FIG. 21). The study was conducted using pig skin, which is recognized for its similarity to human skin. Topical application of aminolevulinic acid (ALA) induced the skin to over-produce the endogenous photosensitizer Protoporphyrin IX (PPIX). Solutions of Formula II(a)(1) at different concentrations were then topically applied to the ALA treated skin after which it was exposed to bright green light. The resulting free radical content of the skin was then measured by Electron Spin Resonance (ESR). Studies conducted in solution have shown that Formula II(a)(1) suppresses singlet oxygen production by PPIX. […] The mechanisms of action of Formula II(a)(1) and Tocopherol are different: the former prevents free radicals from forming; the latter scavenges free radicals after they appear.

For data set [5], the system named is HaCat cells. Briefly: Cell viability of ALA-treated HaCat cells after red light irradiation. In kind it is cell-based, human. To be noted: 1 mM. The procedure: HaCat cells were seeded in 96-well plates and grown to confluence. Confluent cells were treated with 8 mM ALA for 2 hours. Cells then received 1 mM of Formula II(a)(1), II(b)(1)+II(c)(1), or II(bk). Following a one-hour incubation, cells were irradiated for 3 minutes and immediately washed with naïve cell culture media once. Additional cell culture media was added and the cells were cultured for 24 hours. A cell viabilty agent was added to each well and incubated for 2 hours. Cell viability was analyzed at the conclusion of this incubation by measuring the fluorescence intensity (excitation/emission 560/590) of each well. Results shown in FIG. 26 indicate that control cells (without conjugated fused polycyclic compound treatment) were almost completely killed by phototoxic ROS induced by ALA and light irradiation. Cell viability (cell metabolic activity) of light irradiated cells (without conjugated fused polycyclic) was only […] of normal cell control (no treatment). […] About 50% of Formula II(a)(1) treated cells survived, while cells without conjugated fused polycyclic compound exposure and cells treated with II(bk) were almost 100% dead. […] The Formula II(a)(1) was also observed to protect cells from light irradiation induced injury (relative cell viability 61%). […]

The subject of data set [6] is HaCat cells. In words: Dark toxicity analysis in HaCat cells (no irradiation). As to conditions: 1 mM with ALA, no red light irradiation. In kind it is cell-based, human. As for the experimental part:
To make sure that ALA and conjugated fused polycyclics treatments themselves are not influencing cell viability, (or cause cellular toxicity), dark toxicity analysis was performed. The experiment procedures were exactly same as above for cell viability analysis except that the red light irradiation step was omitted.

Data set [7] is described as follows: Solubility in DMSO, PBS buffer and cell culture media. The data set is classed as physicochemical. The procedure: All Conjugated fused polycyclic compounds tested (including Formulas II(a)(1), II(b)(1) and II(c)(1), and II(bk)) are highly soluble in DMSO, but poorly soluble in PBS buffer and cell culture medium. Formulas II(b)(1) and II(c)(1) can remain soluble in PBS buffer or cell culture medium if its concentration is less 0.2 mM. At concentrations higher than 0.2 mM, the solution begins to cloud and become emulsion like. This emulsion is able to remain stable for as long as 8 hours. Formula II(bk) is less soluble in PBS buffer and cell culture medium. It was only observed to dissolve in PBS at concentrations of 0.1 mM or less. Similar to Formulas II(b)(1) and II(c)(1), increasing Formula II(bk) concentration above 0.1 mM results in a cloudy emulsion like solution. But this cloudy solution is fairly stable and can be kept for more than 3 days.

On to `COC(=O)C(C#N)=C1c2ccccc2-c2ccccc21` [Formula I(a)(1)], for which the “quantum yield of singlet oxygen generation” value in data set [1] was 0.015. The singlet oxygen phosphorescence result in data set [2] (355 nm excitation, 250 μM stabilizer) is “significantly reduced singlet oxygen phosphorescence”. The “concentration above which the amount of generated singlet oxygen was reduced” value in data set [2] (532 nm excitation) was “above 3 mM”. The λmax in data set [3] came to 334 nm. The “extinction coefficient (molar absorptivity)” value in data set [3] (at λmax) was 16,200 M −1 cm −1.

On to `COC(=O)C(C#N)=C1c2ccccc2C(=O)c2ccccc21` [Formula II(a)(1)], for which the “Free Radicals (%)” value in data set [4] (1.25 mM) turned out to be 92%; in data set [4] (2.5 mM), 46%; in data set [4] (5 mM), 11%; in data set [4] (10 mM) it was 19%. In addition, the “Free Radicals (a.u.)” value was 2311 ± 331 a.u in data set [4] (1.25 mM), 1162 ± 225 a.u in data set [4] (2.5 mM), 270 ± 88 a.u in data set [4] (5 mM) and 475 ± 212 a.u in data set [4] (10 mM). The “reduction of visible light-induced free radicals in skin” value in data set [4] (dose-dependent, maximum) was “up to 89%”. Moreover, the “free radical reduction compared with Tocopherol” value in data set [4] (same conditions) is listed as “superior to Tocopherol”. Besides, in data set [5] (8 mM ALA, 3 minutes irradiation, 24 hours culture, vs normal cell control), the relative cell viability was 61%. For the same compound, the “treated cells that survived” value in data set [5] (after irradiation) is “About 50%”. Moreover, in data set [6], the dark toxicity entry is “a little toxicity”. Further, in data set [7], the “solubility in PBS buffer and cell culture medium (in words)” value is “especially difficult to dissolve”. Also, in data set [7] (0.05 mM in PBS buffer), the stability of solution result was “not observed to be stable for long”. Further, the precipitation entry in data set [7] (one hour after adding to PBS buffer or cell culture medium) is given as “almost all Formula II(a)(1) precipitatde”.
